Source: BindingDB's records for patent US20230391748 (Rigel Pharmaceuticals, 2023)

Target: T1, Interleukin-1 receptor-associated kinase 4 (Homo sapiens, UniProt Q9NWZ3)
T1 sequence (Q9NWZ3 whole entry): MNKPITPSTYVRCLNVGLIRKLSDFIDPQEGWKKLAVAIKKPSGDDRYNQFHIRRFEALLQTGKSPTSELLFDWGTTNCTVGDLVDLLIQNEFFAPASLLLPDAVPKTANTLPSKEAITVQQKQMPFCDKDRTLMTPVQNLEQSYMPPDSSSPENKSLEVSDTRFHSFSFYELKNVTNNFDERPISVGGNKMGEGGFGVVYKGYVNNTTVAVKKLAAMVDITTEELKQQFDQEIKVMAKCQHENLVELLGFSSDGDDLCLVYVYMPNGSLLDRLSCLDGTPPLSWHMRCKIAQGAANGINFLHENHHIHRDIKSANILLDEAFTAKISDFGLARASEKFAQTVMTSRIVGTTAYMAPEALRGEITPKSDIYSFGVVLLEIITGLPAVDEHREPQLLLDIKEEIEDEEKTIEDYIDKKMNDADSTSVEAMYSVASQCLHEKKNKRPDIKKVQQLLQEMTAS
Test: IRAK4 ADP-Glo Assay
Protocol: The ADP-Glo reagents were thawed at ambient temperature. The Kinase Detection Reagent was prepared by mixing kinase detection buffer with the lyophilized kinase detection substrate, and set aside.A stock volume of 5 Reaction Kinase Buffer was made with a final concentration of 100 mM MgCl2, 200 mM Tris-HCl, and 0.5 mg/ml of BSA, in distilled H2O with a final pH7.4. A 2 working stock volume of Reaction Kinase Buffer was made containing a final concentration of 100 μM DTT.The components of IRAK4 Enzyme were thawed on ice. Diluted IRAK4 in 1 Kinase Reaction Buffer (diluted from 2 buffer) was prepared at 5.0 ng/μl. […] Then diluted 1:5 in 2 Reaction Buffer in a 96 well plate. 1.0 μl was transferred to a 384 well plate in duplicate. […] 1 μl of 1 mg/ml stock solution of MBP substrate was added NOTE: MBP can be combined with ATP mix with equal volume and then added at 2 μl/well. Final reaction volume was 5 μl.The plate was centrifuged and the reaction mixture was incubated at room temperature for 60 minutes or at 30 C. for 30 minutes.The reaction was terminated and the remaining ATP was depleted by adding 5 μl of ADP-Glo Reagent. The 384-well plate was centrifuged and then the reaction mixture was incubated for another 40 minutes at ambient temperature.

| SMILES | IC50 [nM] |
| --- | --- |
| CC(C)Oc1cc2c(OC[C@@H]3CC(F)(F)C(=O)N3)ncc(C#CC3(O)CCN(C(=O)OC(C)(C)C)CC3)c2cc1C(N)=O [US20230391748, Compound I-52] | 18.3 |
| CC(C)Oc1cc2c(O[C@@H]3CCCNC3)ncc(C#CC3(O)CCCC3)c2cc1C(N)=O [US20230391748, Compound I-85] | 35 |
